Tests used:
[1] = system: serum lipid values; assay: Reduction of serum lipid values in normolipemic rats (Table 1); format: in vivo, male rats; settings: 8 doses; for Change in percentage of serum triglyceride, column B / Change in percentage of serum cholesterol, column B: B: referred to untreated control group; for Change in percentage of serum cholesterol, column A / Change in percentage of serum triglyceride, column A: A: referred to the initial value of the treated group
Protocol: 1. Male rats having a normal serum lipid content were being treated for eight days with different daily doses mentioned in Table 1. The values given in that Table stand for a change in the serum concentrations of certain lipid classes.
The doses were administered per os by means of an esophagal sound. Generally, prior to and after the treatment, blood samples were taken and the concentration of cholesterol in the serum was determined according to the method of Lauber and Richterich and that of triglycerides according to the method of Eggstein and Kreutz. In the examples of the following Table 1, the changes in the serum lipid values due to the treatment with the substances of the invention are defined as follows:
a. The changes in percent in the final value of the treated group, referred to the initial value of the treated group, the initial value being 100 per cent, and
b. the change in the final value of the treated group, referred to the final value of an accompanying untreated control group, the untreated group's value being defined as 100 %. Thus, the value given in columns A is the change in percentage referred to the initial value, the value given in columns B is the change in percentage of the treated group, referred to the untreated control group.

[2] = system: blood sugar level; assay: Blood sugar level in alloxan-diabetic male rats; format: in vivo; settings: 100 mg/kg/day per os, 8 days, 20 hours after the last administration, vs untreated group; insulin-substituted
Protocol: (§1) The hypoglycemic activity had been established as follows, the blood sugar level having been determined by means of an autoanalyzer:
1. On alloxan-diabetic male rats substituted with insulin before the beginning of the test, that were offered food ad libitum, 100 mg/kg/day of 4-hydroxy-3,5-di-t.-butyl-phenylpropionic acid n-octadecyl ester administered per os once a day during 8 successive days lowered the blood sugar level 20 hours after the last administration by -18% as compared with an untreated group.

[3] = in vivo; settings: mouse, po, male mice
[4] = system: blood sugar level; assay: Blood sugar level in male rats fed fructose doses; format: in vivo; settings: 100 mg/kg/day, 3 days pretreatment, 24 hours after the last administration; fructose doses per os
Protocol: as §1
In the case of male rats having been feed fructose doses per os and pretreated for 3 days with 100 mg/kg/day of the same compound, the blood sugar level was lowered by -17% 24 hours after the last administration.

[5] = system: blood sugar level; assay: Tolerance test with oral glucose in fasted male rats; format: in vivo
Protocol: as §1
2. In the tolerance test with glucose doses administered per os to male rats that had fasted for 22 hours and that were administered 19 and 3 hours before the glucose administration (1g/kg) per os 100 mg/kg of the test preparation, 4-hydroxy-3,5-di-t.-butyl-phenyl-propionic acid n-octadecyl ester caused a lowering of the blood sugar level by -21% 3 hours after being fed with glucose.

[6] = system: serum lipid concentration; assay: Dietetic-medicamentous hyperlipemia (hypercholesteremia) of male rats (Table 2); format: in vivo; settings: 100 mg/kg/day, 8 doses, esophagal sound; hyperlipemic diet
Source text: 2. Dietetic-medicamentous hypercholesteremia of male rats
All the animals were fed with a diet food containing 2% of cholesterol, 2% of sodium cholate, 0.3% of methyl-thio-uracil, 20% of coco fat and 44% of cane sugar. The serum lipid concentration of the animals treated with the cited compounds was compared to that of an untreated control group being on the same diet which causes the serum cholesteral concentration to rise within one week to about 10 times the initial value, that of the serum triglycerides to 3 times and that of the phospholipids in the serum to 4 times the initial value. The lipid phosphorus was determined according to the method of Messrs. Boehringer Mannheim W. Germany. At the same time as the diet was offered the cited compounds were administered once a day to groups of rats, each containing 10 animals, over a period of 8 days by means of an esophagal sound. The change in percentage in the serum lipid concentration as compared to the control group (diet without active substance) is indicated in Table 2.

Structure (SMILES)	Change in percentage of serum triglyceride, column B ([1]; 30 mg/kg/day p.o.)	Change in percentage of serum cholesterol, column A ([1]; 100 mg/kg/day p.o.)	Change in percentage of serum cholesterol, column B ([1]; 100 mg/kg/day p.o.)	Change in percentage of serum triglyceride, column B ([1]; 100 mg/kg/day p.o.)	lowering of the blood sugar level [2]	LD50 [3]	lowering of the blood sugar level [4]	lowering of the blood sugar level ([5]; 100 mg/kg per os 19 and 3 hours before glucose (1g/kg), 3 hours after glucose, fasted 22 hours)	lowering of the blood sugar level compared with phenformin ([5]; 100 mg/kg per os, comparison preparation phenformin)	Change in percentage of serum triglyceride, column A ([1]; 100 mg/kg/day p.o.)	Change in percentage of serum triglyceride, column B ([1]; 10 mg/kg/day p.o.)	Change in percentage of serum triglyceride, column A ([1]; 10 mg/kg/day p.o.)	Change in percentage of serum triglyceride, column A ([1]; 30 mg/kg/day p.o.)	Change in percentage of serum cholesterol referred to the untreated group [6]	Change in percentage of serum cholesterol, column A ([1]; 30 mg/kg/day p.o.)	Change in percentage of serum cholesterol, column B ([1]; 30 mg/kg/day p.o.)
CC(C)(C)c1cc(CCC(=O)OCC(COC(=O)CCc2cc(C(C)(C)C)c(O)c(C(C)(C)C)c2)(COC(=O)CCc2cc(C(C)(C)C)c(O)c(C(C)(C)C)c2)COC(=O)CCc2cc(C(C)(C)C)c(O)c(C(C)(C)C)c2)cc(C(C)(C)C)c1O [Example 7, Tetra-(4-hydroxy-3,5-di-t.-butylphenyl-propionic acid)-pentaerythritol ester]	-27%	-5%	-7%	-17%	–	–	–	–	–	–	–	–	–	–	–	–
CCCCCCCCCCCCCCCCCCOC(=O)CCc1cc(C(C)(C)C)c(O)c(C(C)(C)C)c1 [Example 3, 4-hydroxy-3,5-di-t.-butyl-phenyl-propionic acid-n-octadecyl ester]	-25%	–	–	-16%	-18%	8000 mg/kg	-17%	-21%	in the same order of magnitude as that obtained with the comparison preparation phenformin	-33%	–	–	–	–	–	–
CCCCOC(=O)CCc1cc(C(C)(C)C)c(O)c(C(C)(C)C)c1 [Example 6, 4-hydroxy-3,5-di-t.-butylphenyl-propionic acid-n-butyl ester]	-27%	-10%	–	-58%	–	–	–	–	–	-54%	-17%	–	–	–	–	–
CC(C)(C)c1cc(CCC(=O)O)cc(C(C)(C)C)c1O [Example 2, 4-hydroxy-3,5-di-t.-butyl-phenyl-propionic acid]	-38%	–	-12%	-38%	–	–	–	–	–	-32%	-26%	-21%	-23%	–	–	–
COC(=O)CCc1cc(C(C)(C)C)c(O)c(C(C)(C)C)c1 [Example 5, 4-hydroxy-3,5-di-t.-butylphenyl-propionic acid methyl ester]	-42%	-3%	–	-71%	–	–	–	–	–	-60%	-3%	–	–	–	–	–
CCOC(=O)C(C)(C)Oc1ccc(Cl)cc1 [Clofibrat, reference compound]	-13%	–	–	–	–	2000 to 2500 mg/kg	–	–	–	–	–	–	+4%	0%	-7%	-7%

Source: patent US3969530A, “4-Hydroxy-3,5-di-alkyl-phenyl-propionic acid composition suitable as lipid lowering and anti-diabetic agents” (Hoechst Aktiengesellschaft, priority 1972, dated 1976)
